Measurements published in ChEMBL document CHEMBL6109039, “Designed and synthesized novel tripeptides targeting diabetes and its related pathologies” (Eur J Med Chem, 2025).
Residues, ends and D or L forms follow the SMILES beside them.

Key:
Mus musculus [1] = assay: Antidiabetic activity in Nicotinamide/Streptozotocin induced male Balb/c mouse model assessed as change in body weight at 63.81 ug/kg, ip treated for 21 days relative to control; type: functional; conditions: dose 63.81 µg/kg, time 21 day
Albumin [2] = molecular target: T1, Albumin (Homo sapiens, UniProt P02768); assay: Inhibition of D-fructose glycation in human serum albumin model by measuring absorbance at 279 nm incubated for 7 days by UV spectroscopic analysis (reference value: 1.072); conditions: 168 h, time 7 day
Albumin [3] = molecular target: T1, Albumin; assay: Inhibition of D-fructose glycation in human serum albumin model by measuring ketoamine moieties incubated for 3 days by Nitroblue tetrazolium (NBT) reduction assay (reference value: 152.64 nmol/mL); conditions: 72 h, time 3 day
Mus musculus [4] = assay: Antidiabetic activity in Nicotinamide/Streptozotocin induced male Balb/c mouse model assessed as reduction in fasting blood glucose levels at 63.81 ug/kg, ip measured after 14 days by glucometer analysis (reference value: 168.5 +/- 8.42 mg/dl); type: functional; conditions: dose 63.81 µg/kg, time 14 day
Mus musculus [5] = assay: Antidiabetic activity in Nicotinamide/Streptozotocin induced male Balb/c mouse model assessed as reduction in fasting blood glucose levels at 63.81 ug/kg, ip measured immediately by glucometer analysis (reference value: 127.50 +/- 6.87 mg/dl); type: functional; conditions: dose 63.81 µg/kg
Albumin [6] = molecular target: T1, Albumin; assay: Inhibition of D-glucose glycation in human serum albumin model by measuring absorbance at 279 nm incubated for 7 days by UV spectroscopic analysis (reference value: […]); conditions: 168 h, time 7 day
Albumin [7] = molecular target: T1, Albumin; assay: Inhibition of D-fructose glycation in human serum albumin model by measuring absorbance at 279 nm incubated for 3 days by UV spectroscopic analysis (reference value: 0.492); conditions: 72 h, time 3 day
Alpha glucosidase = Alpha glucosidase (Homo sapiens, UniProt O43451+P10253+P14410+Q2M2H8); assay: Inhibition of Alpha-glucosidase (unknown origin) using p-nitrophenyl-alpha-D-glucopyranoside as substrate pre-incubated for 10 mins followed by substrate addition and measured after 5 mins by spectrophotometric analysis; type: protein assay
Mus musculus [8] = assay: Antidiabetic activity in Nicotinamide/Streptozotocin induced male Balb/c mouse model assessed as LDL-Cholesterol/HDL-Cholesterol ratio in blood at 63.81 ug/kg, ip treated for 21 days (reference value: 1.53); type: functional; conditions: dose 63.81 µg/kg, time 21 day
Albumin [9] = molecular target: T1, Albumin; assay: Inhibition of D-glucose glycation in human serum albumin model incubated for 14 days by UV spectroscopic analysis relative to control; conditions: 336 h, time 14 day
Albumin [10] = molecular target: T1, Albumin; assay: Inhibition of D-fructose glycation in human serum albumin model by measuring ketoamine moieties incubated for 30 days by Nitroblue tetrazolium (NBT) reduction assay (reference value: 128.71 nmol/mL); conditions: 720 h, time 30 day
Mus musculus [11] = assay: Antidiabetic activity in Nicotinamide/Streptozotocin induced male Balb/c mouse model assessed as Non-HDL-Cholesterol level in blood at 63.81 ug/kg, ip treated for 21 days (reference value: 75 mg/dL); type: functional; conditions: dose 63.81 µg/kg, time 21 day
Mus musculus [12] = assay: Antidiabetic activity in Nicotinamide/Streptozotocin induced male Balb/c mouse model assessed as TC/HDL-Cholesterol ratio in blood at 63.81 ug/kg, ip treated for 21 days (reference value: 4.03); type: functional; conditions: dose 63.81 µg/kg, time 21 day
Mus musculus [13] = assay: Antidiabetic activity in Nicotinamide/Streptozotocin induced male Balb/c mouse model assessed as reduction in HbA1c levels at 63.81 ug/kg, ip treated for 21 days by Turbidimetric immunoassay; type: functional; parameters: scale not given: the % may be the effect or the level left; conditions: dose 63.81 µg/kg, time 21 day
Albumin [14] = molecular target: T1, Albumin; assay: Inhibition of D-glucose glycation in human serum albumin model by measuring ketoamine moieties incubated for 7 days by Nitroblue tetrazolium (NBT) reduction assay (reference value: 35.92 nmol/mL); conditions: 168 h, time 7 day
Pancreatic alpha-amylase = molecular target: T2, Pancreatic alpha-amylase (Sus scrofa, UniProt P00690); assay: Inhibition of porcine pancreatic Alpha-amylase using starch as substrate pre-incubated for 20 mins followed by substrate addition and measured after 15 mins by DNS reagent based absorbance assay
T2 sequence (P00690 whole entry): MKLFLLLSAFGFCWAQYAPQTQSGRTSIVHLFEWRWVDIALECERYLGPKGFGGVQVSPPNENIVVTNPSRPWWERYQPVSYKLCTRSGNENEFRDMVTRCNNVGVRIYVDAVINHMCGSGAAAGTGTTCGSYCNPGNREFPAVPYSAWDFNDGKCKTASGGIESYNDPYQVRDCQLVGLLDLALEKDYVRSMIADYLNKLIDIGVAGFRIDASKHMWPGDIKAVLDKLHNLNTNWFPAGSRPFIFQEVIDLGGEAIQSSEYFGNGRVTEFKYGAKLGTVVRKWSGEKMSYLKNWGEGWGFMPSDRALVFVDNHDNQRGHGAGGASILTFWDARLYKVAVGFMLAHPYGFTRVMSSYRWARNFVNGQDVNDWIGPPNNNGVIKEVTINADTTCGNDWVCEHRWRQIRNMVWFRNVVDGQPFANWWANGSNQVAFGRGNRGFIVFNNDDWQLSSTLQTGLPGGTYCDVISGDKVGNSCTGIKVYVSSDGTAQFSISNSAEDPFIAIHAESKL

Albumin [15] = molecular target: T1, Albumin; assay: Inhibition of D-glucose glycation in human serum albumin model by measuring ketoamine moieties incubated for 33 days by Nitroblue tetrazolium (NBT) reduction assay (reference value: 66.64 nmol/mL); conditions: 792 h, time 33 day
Albumin [16] = molecular target: T1, Albumin; assay: Inhibition of D-fructose glycation in human serum albumin model by measuring ketoamine moieties incubated for 26 days by Nitroblue tetrazolium (NBT) reduction assay (reference value: 118.21 nmol/mL); conditions: 624 h, time 26 day
Mus musculus [17] = assay: Antidiabetic activity in Nicotinamide/Streptozotocin induced male Balb/c mouse model assessed as reduction in VLDL-cholesterol level in blood at 63.81 microg/kg, ip treated for 21 days (reference value: 14 +/- 0.6 mg/dL); type: functional; conditions: dose 63.81 µg/kg, time 21 day
Albumin [18] = molecular target: T1, Albumin; assay: Inhibition of D-fructose glycation in human serum albumin model by measuring absorbance at 279 nm incubated for 5 days by UV spectroscopic analysis (reference value: 1.056); conditions: 120 h, time 5 day
Albumin [19] = molecular target: T1, Albumin; assay: Inhibition of D-glucose glycation in human serum albumin model assessed as reduction in fluorescence intensity incubated for 3 days by UV spectroscopic analysis relative to control; conditions: 72 h, time 3 day
Albumin [20] = molecular target: T1, Albumin; assay: Inhibition of D-glucose glycation in human serum albumin model by measuring ketoamine moieties incubated for 30 days by Nitroblue tetrazolium (NBT) reduction assay (reference value: 27.85 nmol/mL); conditions: 720 h, time 30 day
Mus musculus [21] = assay: Antidiabetic activity in Nicotinamide/Streptozotocin induced male Balb/c mouse model assessed as reduction in aspartate transaminase level in blood at 63.81 ug/kg, ip treated for 21 days (reference value: 171 +/- 8.55 U/L); type: functional; conditions: dose 63.81 µg/kg, time 21 day
Albumin [22] = molecular target: T1, Albumin; assay: Inhibition of D-fructose glycation in human serum albumin model by measuring absorbance at 279 nm incubated for 26 days by UV spectroscopic analysis (reference value: 2.267); conditions: 624 h, time 26 day
Mus musculus [23] = assay: Antidiabetic activity in Nicotinamide/Streptozotocin induced male Balb/c mouse model assessed as reduction in LDL-Cholesterol level in blood at 63.81 ug/kg, ip treated for 21 days (reference value: 46 +/- 2.30 mg/dL); type: functional; conditions: dose 63.81 µg/kg, time 21 day
Albumin [24] = molecular target: T1, Albumin; assay: Inhibition of D-glucose glycation in human serum albumin model by measuring ketoamine moieties incubated for 26 days by Nitroblue tetrazolium (NBT) reduction assay (reference value: 28.79 nmol/mL); conditions: 624 h, time 26 day
Albumin [25] = molecular target: T1, Albumin; assay: Inhibition of D-fructose glycation in human serum albumin model by measuring ketoamine moieties incubated for 33 days by Nitroblue tetrazolium (NBT) reduction assay (reference value: 144.33 nmol/mL); conditions: 792 h, time 33 day

T1 sequence (P02768 whole entry): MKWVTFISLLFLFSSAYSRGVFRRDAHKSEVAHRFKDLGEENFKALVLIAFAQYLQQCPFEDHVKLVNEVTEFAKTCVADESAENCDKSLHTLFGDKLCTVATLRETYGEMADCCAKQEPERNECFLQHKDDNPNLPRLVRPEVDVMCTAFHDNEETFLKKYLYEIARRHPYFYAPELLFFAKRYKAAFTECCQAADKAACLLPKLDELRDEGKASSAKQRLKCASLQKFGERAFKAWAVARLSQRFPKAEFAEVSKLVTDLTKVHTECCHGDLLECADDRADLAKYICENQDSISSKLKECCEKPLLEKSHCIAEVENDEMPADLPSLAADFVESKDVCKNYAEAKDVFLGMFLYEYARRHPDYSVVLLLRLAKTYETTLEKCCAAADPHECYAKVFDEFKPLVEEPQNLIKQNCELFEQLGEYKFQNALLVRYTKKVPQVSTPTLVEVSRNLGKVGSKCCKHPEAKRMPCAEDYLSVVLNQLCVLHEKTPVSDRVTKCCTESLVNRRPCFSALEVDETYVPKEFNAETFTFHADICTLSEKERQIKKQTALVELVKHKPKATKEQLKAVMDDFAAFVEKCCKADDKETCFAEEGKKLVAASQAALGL

For N=C(N)NCCC[C@H](N)C(=O)N[C@@H](Cc1c[nH]c2ccccc12)C(=O)N[C@@H](Cc1c[nH]c2ccccc12)C(=O)O (H-Arg-Trp-Trp-OH), the Activity (Mus musculus [1]) was 2.7%, the OD (Albumin [2]) was 0.665 and the Activity (Albumin [3]) was 135.37 nmol/mL. It also gave an Activity (Mus musculus [4]) of 134 mg/dL, an Activity (Mus musculus [5]) of 111.5 mg/dL and an OD (Albumin [6]) of 0.434. It also gave an OD (Albumin [7]) of 0.287, an IC50 (Alpha glucosidase) of 98 µM and a Ratio (Mus musculus [8]) of 0.75. For the same compound, the “inhibition (INH)” value (Albumin [9]) was 74.68%, the Activity (Albumin [10]) was 108.46 nmol/mL and the Activity (Mus musculus [11]) was 67 mg/dL. The Ratio (Mus musculus [12]) was 2.63, the Activity (Mus musculus [13]) was 7.2% and the Activity (Albumin [14]) was 12.579 nmol/mL. It also gave an IC50 (Pancreatic alpha-amylase) of 96 µM, an Activity (Albumin [15]) of 18.433 nmol/mL and an Activity (Albumin [16]) of 142.17 nmol/mL. For the same compound, the Activity (Mus musculus [17]) was 11 mg/dL, the OD (Albumin [18]) was 0.482 and the “inhibition (INH)” value (Albumin [19]) was 78%. The Activity (Albumin [20]) was 18.908 nmol/mL, the Activity (Mus musculus [21]) was 152 U/L and the OD (Albumin [22]) was 1.502. It also gave an Activity (Mus musculus [23]) of 31 mg/dL, an Activity (Albumin [24]) of 20.174 nmol/mL and an Activity (Albumin [25]) of 109.89 nmol/mL.
